Experimental data reported in patent publication US8247211B2, “Glycopeptide antibiotics” (American Cyanamid Company, priority 2001, dated 2012).
Values joined by “and” are separate entries in the source; they are usually repeats but may differ in a detail not shown here. Identical values can stand only once.

Test system: Staphylococcus aureus
Experiment: Zone of inhibition, assay plate Staphylococcus aureus
Format: cell-based
Conditions: 25 μl of extract per 5 mm well, Nutrient Agar pH 6.8, incubated overnight at 37° C.
Experimental: Inoculate 10 mL of Tryptic Soy Broth with a loopful of slant culture, Staphylococcus aureus, and place in a stationary rack at 37° C. After 16-18 hour incubation, the Optical Density (OD) of the culture is read @ A600 nm, using a 1:10 dilution. OD should be between 0.1-0.3, and if not adjust with Tryptic Soy Broth. A 40 mL sample of Nutrient Agar, pH 6.8 is inoculated with 90 μl of S. aureus culture and poured into a sterile petri dish. When the agar has solidified, wells (5 mm) are plated using an automated welling device. Wells are inoculated with 25 μl of extract and incubated overnight at 37° C. Zones of inhibition are measured and recorded the following morning.

| Compound | Zone of Inhibition vs. S. aureus |
| --- | --- |
| CCCC(=O)OC1C(O)C(CO)OC(OC2C(CO)OC(Oc3ccc(CC4NC(=O)C(C(C)c5ccccc5)NC(=O)CNC(=O)C(CO)NC(=O)C(C(O)C5CNC(=N)N5C5OC(CO)C(O)C(O)C5O)NC(=O)C(C(O)C5CNC(=N)N5)NC4=O)cc3)C(O)C2O)C1O (stereo not drawn) [Example 272b, Cyclo[glycyl-β-methylphenylalanyl-O-[4-O-(3-O-butanoyl-hexopyranosyl)-hexopyranosyl]tyrosyl-3-(2-iminoimidazolidin-4-yl)seryl-3-(3-hexopyranosyl-2-iminoimidazolidin-4-yl)serylseryl]] | 8 mm |
| CCCCCC(=O)OC1C(O)C(CO)OC(OC2C(CO)OC(Oc3ccc(CC4NC(=O)C(C(C)c5ccccc5)NC(=O)CNC(=O)C(CO)NC(=O)C(C(O)C5CNC(=N)N5C5OC(CO)C(O)C(O)C5O)NC(=O)C(C(O)C5CNC(=N)N5)NC4=O)cc3)C(O)C2O)C1O (stereo not shown) [Example 273b] | 9 mm and 8 mm |
| CCCCCCC(=O)OC1C(OC2C(CO)OC(Oc3ccc(CC4NC(=O)C(C(C)c5ccccc5)NC(=O)CNC(=O)C(CO)NC(=O)C(C(O)C5CNC(=N)N5C5OC(CO)C(O)C(O)C5O)NC(=O)C(C(O)C5CNC(=N)N5)NC4=O)cc3)C(O)C2O)OC(CO)C(O)C1O (stereo not drawn) [Example 274a, Cyclo[glycyl-β-methylphenylalanyl-O-[4-O-(2-O-heptanoyl-hexopyranosyl)-hexopyranosyl]tyrosyl-3-(2-iminoimidazolidin-4-yl)seryl-3-(3-hexopyranosyl-2-iminoimidazolidin-4-yl)serylseryl]] | 9 mm |
| CCCCCCC(=O)OC1C(O)C(CO)OC(OC2C(CO)OC(Oc3ccc(CC4NC(=O)C(C(C)c5ccccc5)NC(=O)CNC(=O)C(CO)NC(=O)C(C(O)C5CNC(=N)N5C5OC(CO)C(O)C(O)C5O)NC(=O)C(C(O)C5CNC(=N)N5)NC4=O)cc3)C(O)C2O)C1O (stereo not drawn) [Example 274b, Cyclo[glycyl-β-methylphenylalanyl-O-[4-O-(3-O-heptanoyl-hexopyranosyl)-hexopyranosyl]tyrosyl-3-(2-iminoimidazolidin-4-yl)seryl-3-(3-hexopyranosyl-2-iminoimidazolidin-4-yl)serylseryl]] | 10 mm |
